Results taken from ChEMBL document CHEMBL1150721, “Hepatoprotective activity of polyphenolic compounds from Cynara scolymus against CCl4 toxicity in isolated rat hepatocytes” (1987).

Experiments:
Hepatocyte [1] = experiment: Hepatoprotective activity against carbon tetrachloride-induced hepatotoxicity in fasted Sprague-Dawley rat hepatocytes assessed as serum glutamic oxaloacetic transaminase release at 0.1 mg/ml administered before 10 mins of carbon tetrachloride challenge measured after 30 mins; assay type: functional
Hepatocyte [2] = experiment: Hepatoprotective activity against carbon tetrachloride-induced hepatotoxicity in fasted Sprague-Dawley rat hepatocytes assessed as serum glutamic pyruvate transaminase release at 0.01 mg/ml administered before 10 mins of carbon tetrachloride challenge measured after 30 mins; assay type: functional
[3] = Effect on glutamate oxaloacetic transaminase activity at 1 mg/ml
Hepatocyte [4] = experiment: Hepatoprotective activity against carbon tetrachloride-induced hepatotoxicity in fasted Sprague-Dawley rat hepatocytes assessed as serum glutamic pyruvate transaminase release at 0.1 mg/ml administered before 10 mins of carbon tetrachloride challenge measured after 30 mins; assay type: functional
Hepatocyte [5] = experiment: Hepatoprotective activity against carbon tetrachloride-induced hepatotoxicity in fasted Sprague-Dawley rat hepatocytes assessed as serum glutamic oxaloacetic transaminase release at 0.01 mg/ml administered before 10 mins of carbon tetrachloride challenge measured after 30 mins; assay type: functional
Hepatocyte [6] = experiment: Hepatoprotective activity against carbon tetrachloride-induced hepatotoxicity in fasted Sprague-Dawley rat hepatocytes assessed as serum glutamic pyruvate transaminase release at 3 mg/ml administered before 10 mins of carbon tetrachloride challenge measured after 30 mins; assay type: functional
Hepatocyte [7] = experiment: Hepatoprotective activity against carbon tetrachloride-induced hepatotoxicity in fasted Sprague-Dawley rat hepatocytes assessed as serum glutamate pyruvate transaminase release at 1 mg/ml administered before 10 mins of carbon tetrachloride challenge measured after 30 mins; assay type: functional
Hepatocyte [8] = experiment: Hepatoprotective activity against carbon tetrachloride-induced hepatotoxicity in fasted Sprague-Dawley rat hepatocytes assessed as serum glutamic oxaloacetic transaminase release at 3 mg/ml administered before 10 mins of carbon tetrachloride challenge measured after 30 mins; assay type: functional
[9] = target: T1, Alanine aminotransferase 1 (Homo sapiens) (UniProt P24298); experiment: Effect on glutamic pyruvate transaminase activity at 1 mg/ml
T1 sequence (whole entry): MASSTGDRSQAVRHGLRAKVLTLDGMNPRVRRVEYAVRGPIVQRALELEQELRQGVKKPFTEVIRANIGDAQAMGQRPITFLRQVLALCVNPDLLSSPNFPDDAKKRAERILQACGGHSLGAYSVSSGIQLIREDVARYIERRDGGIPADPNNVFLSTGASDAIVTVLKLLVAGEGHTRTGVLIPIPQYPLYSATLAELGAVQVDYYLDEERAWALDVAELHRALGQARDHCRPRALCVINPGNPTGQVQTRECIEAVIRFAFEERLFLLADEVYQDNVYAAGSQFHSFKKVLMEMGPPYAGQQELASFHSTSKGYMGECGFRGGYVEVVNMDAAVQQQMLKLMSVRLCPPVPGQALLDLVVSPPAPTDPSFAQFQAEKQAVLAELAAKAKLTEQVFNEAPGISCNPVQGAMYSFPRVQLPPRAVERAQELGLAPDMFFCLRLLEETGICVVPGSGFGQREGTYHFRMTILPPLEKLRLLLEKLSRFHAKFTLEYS

Hepatocyte [10] = experiment: Hepatoprotective activity against carbon tetrachloride-induced hepatotoxicity in fasted Sprague-Dawley rat hepatocytes assessed as serum glutamic oxaloacetic transaminase release at 1 mg/ml administered before 10 mins of carbon tetrachloride challenge measured after 30 mins; assay type: functional
[11] = target: T1, Alanine aminotransferase 1 (Homo sapiens); experiment: Effect on glutamic pyruvate transaminase activity at 0.1 mg/ml
[12] = Effect on glutamate oxaloacetic transaminase activity at 0.1 mg/ml
[13] = Effect on glutamate oxaloacetic transaminase activity at 3 mg/ml
[14] = target: T1, Alanine aminotransferase 1 (Homo sapiens); experiment: Effect on glutamic pyruvate transaminase activity at 3 mg/ml

| SMILES | Activity (Hepatocyte [1]) | Activity (Hepatocyte [2]) | Activity [3] | Activity (Hepatocyte [4]) | Activity (Hepatocyte [5]) | Activity (Hepatocyte [6]) | Activity (Hepatocyte [7]) | Activity (Hepatocyte [8]) | Activity [9] | Activity (Hepatocyte [10]) | Activity [11] | Activity [12] | Activity [13] | Activity [14] |
| --- | --- | --- | --- | --- | --- | --- | --- | --- | --- | --- | --- | --- | --- | --- |
| O=C(O)/C=C/c1ccc(O)c(O)c1 [CAFFEIC ACID] | 19.9% | 19% | 123 U/L | 17.5% | 21% | 16.7% | 13.4% | 22.1% | 97 U/L | 18.6% |  |  |  |  |
| O=C(/C=C/c1ccc(O)c(O)c1)O[C@@H]1C[C@](O)(C(=O)O)C[C@@H](O)[C@H]1O [CHLOROGENIC ACID] | 19.4% | 16.7% |  | 15.3% | 19.5% | 15.9% | 17.7% | 20.6% |  | 20.6% |  |  |  |  |
| Oc1cc(O)c2c(c1)O[C@H](c1ccc(O)c(O)c1)[C@@H](O)C2 [CIANIDANOL] | 18.3% | 13.5% |  | 14.3% | 16.8% | 20.1% | 17.3% | 22.4% |  | 21% | 103 U/L | 127 U/L |  |  |
| O=C(/C=C/c1ccc(O)c(O)c1)O[C@@H]1C[C@@](OC(=O)/C=C/c2ccc(O)c(O)c2)(C(=O)O)C[C@@H](O)[C@@H]1O [CYNARIN] | 17.9% | 16.3% | 126 U/L | 16.8% | 17.6% | 13.3% | 13.9% | 16.5% | 103 U/L | 17.6% |  |  | 123 U/L | 110 U/L |
| O=c1cc(-c2ccc(O)c(O)c2)oc2cc(O[C@@H]3O[C@H](CO)[C@@H](O)[C@H](O)[C@H]3O)cc(O)c12 [GALUTEOLIN] | 20.4% | 15.9% | 139 U/L | 14.9% | 21.9% | 20.9% | 15.9% | 22.8% | 111 U/L | 21.1% |  |  |  |  |
| O=C(O)[C@]1(O)C[C@@H](O)[C@@H](O)[C@H](O)C1 [QUINIC ACID] | 21.9% | 15.5% |  | 18.1% | 18.4% | 17% | 17.4% | 21.2% |  | 21.2% |  |  |  |  |
